Where two headings read alike, the source gives them in different places.
Tested on: α7 integrin (LacZ reporter in α7LacZ+/− myoblasts)
Test: qHTS of the LOPAC library and MLSMR (online screen, α7LacZ+/− myoblasts)
Conditions: for activation at 0.307 µM / activation at 1.53 µM / activation at 7.66 µM / activation at 38.3 µM / Emax / EC50: Mus musculus, Myoblast; for activation at 0.307 µM: read-out: Activity at 0.307 uM [%] **; for activation at 1.53 µM: read-out: Activity at 1.530 uM [%] **; for activation at 7.66 µM: read-out: Activity at 7.660 uM [%] **; for activation at 38.3 µM: read-out: Activity at 38.30uM [%] **; for EC50: read-out: Fit LogAC50 (converted)
[1] = 48 h, read-out: Fit Infinite Activity [%]

SMILES	activation at 0.307 µM (48 h)	activation at 1.53 µM (48 h)	activation at 7.66 µM (48 h)	activation at 38.3 µM (48 h)	Emax [1]	Emax (read-out: Max Response [%])	EC50	Score	Score (Table 8 Compound data)
O=C(CN1CCOCC1)NCc1cc([N+](=O)[O-])ccc1O [Compound 166]	10.3%	15.6%	41.7%	87.7%	104%	87.7%			
COc1nccc(NCc2ccccc2)c1C#N [Compound 169]	-18.2%	-21.6%	0.301%	64.3%	64.8%	64.3%	10 µM		
COc1cccc(C(=O)NCC(=O)N2CCC3(CC2)NCCc2[nH]cnc23)c1 [Compound 93]	-3.47%	0%	36.3%	102%	114%	102%	11.2 µM		
COc1cccc(N2C(=O)CC(N3CCc4ccccc4C3)C2=O)c1 (stereo not drawn) [Compound 176]	-22.1%	-16.9%	5.26%	95.9%	96.1%	95.9%	10 µM		
C/C(=N\OCC(=O)OC(C)C(=O)Nc1ccc(C(N)=O)cc1)c1ccc2c(c1)OCO2 (stereo not drawn) [Compound 70]	-15.5%	4.11%	57.2%	89.5%	96.1%	89.5%	4.47 µM		
CCOc1ccc(NC(=O)CN2C(=O)NC(CCSC)C2=O)cc1 (stereo not drawn) [Compound 180]	0%	-2.4%	21.3%	75.1%	76.1%	75.1%	10 µM		
NS(=O)(=O)c1ccc(NC(=O)c2cc(-c3ccccc3O)[nH]n2)cc1 [Compound 105]	15.4%	17.9%	44.2%	112%	113%	112%	10 µM		
CC(=O)Nc1ccc(NC(=O)[C@@H](NC(=O)c2cccc(C)c2)C(C)C)cc1 [Compound 47]	17.2%	32.2%	97.3%	142%	154%		5.62 µM		
NS(=O)(=O)c1ccc(NC(=O)c2ccc(CNS(=O)(=O)c3cc(C(F)(F)F)ccc3Cl)cc2)cc1 [Compound 207]	0.545%	0%	25.5%	73.3%	75.5%	73.3%	10 µM		
O=C(COc1cc2oc(=O)c3c(c2cc1Cl)CCCC3)NC[C@H]1CC[C@H](C(=O)O)CC1 [Compound 95]	-12.4%	3.06%	36.2%	67.9%	83.4%	67.9%	7.08 µM		
CCOC(=O)C1CCCN(C(=O)CNS(=O)(=O)c2ccc(Br)s2)C1 (stereo not drawn) [Compound 33]	-41.8%	-14.3%	17%	31.1%	33.2%		2 µM		
O=Cc1cnc(N2CCCCC2)s1 [Compound 191]	-18.1%	-20%	-4.2%	96%	96.3%	96%			
CC(=O)Nc1ccc(NC(=O)c2cc(=O)c3cc(C)cc(C)c3o2)cc1 [Compound 159]	-4.25%	-1.91%	17.1%	106%	107%	106%			
COCCSc1ccccc1C(=O)Nc1cc(C)cc(C)c1 [Compound 22]	0%	0%	78.3%	82.9%	83.1%		4.47 µM		
CCOC(=O)/C(C(=O)c1ccccc1)=C(\N)NCCO [Compound 222]	9.44%	9.77%	16.5%	66.5%	66.8%	66.5%			
C=CCc1c(C)nc(-c2ccccc2)nc1N/N=C/c1ccccc1 [Compound 213]	0%	6.49%	41.1%	90.1%	109%	90.1%			
COc1ccc(CCNC(=O)Cn2nnc(C(=O)Nc3ccc(Br)cc3)c2N)cc1OC [Compound 148]	-30%	-26.8%	12.5%	102%	110%	102%			
COc1ccc(N2CCN(CCC3Oc4cc([N+](=O)[O-])ccc4NC3=O)CC2)cc1 (stereo not drawn) [Compound 194]	-2.43%	0%	30.6%	68%	73.9%	68%	8.91 µM	42	

SMILES	activation at 0.307 µM (48 h)	activation at 1.53 µM (48 h)	activation at 7.66 µM (48 h)	activation at 38.3 µM (48 h)	Emax [1]	Emax (read-out: Max Response [%])	EC50	Score	Score (Table 8 Compound data)
Cc1ccc(NP(=O)(Nc2ccc(C)cc2)Nc2ccc(C)cc2)cc1 [Compound 10]	0%	11.4%	94.1%	102%	102%		3.16 µM		
COc1cc(=O)n(C)c2ccccc12 [Compound 25]	-16.5%	11.1%	54.5%	63%	64.1%		2.24 µM		
Cc1nnc(NC(=O)CSc2nnc(CCNC(=O)c3ccccc3F)n2C)s1 [Compound 147]	0.45%	2.7%	29.1%	84.9%	91.2%	84.9%			
CC1CCCCN1c1ncnc(N)c1[N+](=O)[O-] (stereo not drawn) [Compound 52]	-25.7%	1.73%	86.4%	130%	138%		4.47 µM		
O=C1SC(Cc2ccccc2)C(=O)N1c1ccccc1 (stereo not drawn) [Compound 50]	7.9%	9.4%	94.1%	176%	186%		7.94 µM		
CSc1ncccc1C(=O)OCC(=O)c1cc(C)n(C)c1C [Compound 134]	-21%	-23.9%	-0.0686%	72.9%	72.9%	72.9%	10 µM		
Sc1nnc(Cn2cnc3ccccc32)n1-c1ccccc1 [Compound 189]	13.1%	23.7%	44%	66.7%	84.6%	66.7%			
Cc1cc(NC(=O)CCC(=O)N(Cc2cccnc2)C(C(=O)NC(C)(C)C)c2ccccc2Cl)no1 (stereo not drawn) [Compound 29]	-23.8%	-13.5%	36%	54.9%	55.7%		3.98 µM		
C=CCn1c(COc2ccc(Cl)cc2)nnc1SCc1ccc(C#N)cc1 [Compound 220]	7.14%	9.51%	27.6%	93.8%	95.1%	93.8%			
Cc1ccc(CNc2ncnc(N)c2[N+](=O)[O-])cc1 [Compound 120]	17.8%	33.8%	63.4%	97.4%	127%	97.4%	10 µM		
COc1ccc(N(CC(=O)NCCC(C)C)C(=O)c2snc(C(=O)NC3CCCCC3)c2N)c(OC)c1 [Compound 98]	-0.0399%	0.105%	28.9%	125%	126%	125%	10 µM		
CC1CCCCC12NC(=O)N(CC(=O)OCc1cccc(F)c1)C2=O (stereo not drawn) [Compound 67]	6.4%	14.5%	69.8%	142%	162%	142%	10 µM		
O=C(Nc1ccc(N2CCN(C(=O)c3ccccc3F)CC2)cc1)c1cncc(Br)c1 [Compound 144]	8.54%	11.1%	20.4%	103%	104%	103%			
NS(=O)(=O)c1ccc(NC(=O)Nc2ccc(Cl)cc2)cc1 [Compound 202]								42	
COc1ccccc1CNc1cc(C)ccn1 [Compound 31]	-22.9%	-0.943%	53.2%	62.3%	62.2%		2.51 µM		
COc1ccc(Nc2ncnc3ccc(Br)cc23)cc1OC [Compound 75]	28.1%	40%	79.7%	95.9%	98.4%	95.9%	3.98 µM		
CCCCN(CCCC)CCNC(=O)c1cn(C)c2ccc(S(=O)(=O)N(C)C3CCCCC3)cc2c1=O [Compound 157]	-0.706%	-3.27%	17.7%	67.5%	68.2%	67.5%	10 µM		42
O=C(Cn1cccc1C(=O)c1ccccc1)NCCCc1ccccc1 [Compound 43]	13.7%	43.9%	94.3%	131%	148%		3.98 µM		

— patent publication US9980943B2, “Methods of treating muscular dystrophy” (BOARD OF REGENTS OF THE NEVADA SYSTEM OF HIGHER EDUCATION, …, priority 2013, dated 2018)
